A short description of assay [1]: Compound was tested for its binding affinity towards PCP receptor in rat membranes in the presence of [3H]-(+)-SKF- 10,047. The class given is cell membranes.
For assay [2], the target named is T1, Muscarinic acetylcholine receptor M2 (Rattus norvegicus, UniProt P10980).
T1 sequence (P10980 whole entry): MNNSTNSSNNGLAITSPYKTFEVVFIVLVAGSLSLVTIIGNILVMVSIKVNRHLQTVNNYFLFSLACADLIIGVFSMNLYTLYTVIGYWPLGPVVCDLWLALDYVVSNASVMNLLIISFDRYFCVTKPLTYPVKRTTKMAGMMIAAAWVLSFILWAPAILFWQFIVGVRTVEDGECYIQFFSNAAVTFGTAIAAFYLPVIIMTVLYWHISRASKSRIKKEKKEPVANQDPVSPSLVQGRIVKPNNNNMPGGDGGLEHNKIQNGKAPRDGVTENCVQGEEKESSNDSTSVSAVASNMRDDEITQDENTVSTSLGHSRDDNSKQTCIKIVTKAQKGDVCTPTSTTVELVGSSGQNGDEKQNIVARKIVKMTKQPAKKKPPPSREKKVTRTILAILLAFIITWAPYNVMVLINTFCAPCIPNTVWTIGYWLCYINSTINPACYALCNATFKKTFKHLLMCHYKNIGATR
The assay is described as follows: Inhibition of [3H]N-methylscopolamine binding to Muscarinic acetylcholine receptor M2 of rat heart membranes. The class given is cell membranes, Membrane.

Assay [3] concerns the target Sigma 2 receptor. In words: Inhibition of [3H]DTG binding to sigma-2 sites of guinea pig brain membranes.
Assay [4] deals with T2, D(2) dopamine receptor (Rattus norvegicus, UniProt P61169). In words: Inhibition of [3H]spiroperidol binding to Dopamine receptor D2 of rat striatal membranes. The class given is cell membranes, Membrane.
The target of assay [5] is Serotonin 2 (5-HT2) receptor. In words: Inhibition of [3H]ketanserin binding to 5-hydroxytryptamine 2 receptor of guinea pig frontal cortex membranes. The class given is tissue-based, Cavia porcellus.
For assay [6], the target named is T3, Opioid receptor (Rattus norvegicus, UniProt P33533+P34975+P33535). In words: Inhibition of [3H]naloxone binding to Opioid receptors of rat brain membranes. The class given is cell membranes, Membrane.
Assay [7] has as its target T2, D(2) dopamine receptor. In words: Binding affinity towards Dopamine receptor D2 in the rat striatal membranes using [3H]spiroperidol. The format is cell membranes, Striatum, Membrane.
For assay [8], the target named is T3, Opioid receptor. In words: Compound was tested for its binding affinity towards Opioid receptors in rat membranes in the presence of [3H]naloxone. The class given is cell membranes.

Results on 13 compounds are retold here after ChEMBL document CHEMBL1131505, “(+)-cis-N-ethyleneamino-N-normetazocine derivatives. Novel and selective sigma ligands with antagonist properties” (J Med Chem, 1998).

T2 sequence (P61169 whole entry): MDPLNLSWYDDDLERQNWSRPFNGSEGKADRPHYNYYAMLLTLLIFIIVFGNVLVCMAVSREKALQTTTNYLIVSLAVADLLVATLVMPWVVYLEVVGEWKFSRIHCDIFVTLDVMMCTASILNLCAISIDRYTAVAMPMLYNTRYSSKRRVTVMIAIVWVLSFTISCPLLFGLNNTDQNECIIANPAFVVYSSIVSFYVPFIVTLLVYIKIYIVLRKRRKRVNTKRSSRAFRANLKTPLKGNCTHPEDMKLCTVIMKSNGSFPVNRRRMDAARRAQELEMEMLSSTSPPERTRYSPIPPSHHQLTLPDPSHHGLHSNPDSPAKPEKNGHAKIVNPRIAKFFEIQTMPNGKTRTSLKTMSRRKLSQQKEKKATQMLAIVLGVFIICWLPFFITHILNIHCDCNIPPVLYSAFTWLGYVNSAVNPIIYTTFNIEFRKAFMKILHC

For `C[C@@H]1[C@@H]2Cc3ccc(O)cc3[C@]1(C)CCN2CCN1CCCC1`, the Ki in assay [1] is more than 10 µM; in assay [2] it was 1.95 µM; in assay [3], 0.26 µM; in assay [4], more than 10 µM; in assay [5] it was more than 10 µM; in assay [6], 3.8 µM.
As to `C[C@@H]1[C@@H]2Cc3ccc(O)cc3[C@]1(C)CCN2CCN1CCCCC1`, the Ki is more than 10 µM in assay [1]; 7.8 µM in assay [2]; 0.114 µM in assay [3]; more than 10 µM in assay [7]; more than 10 µM in assay [5]; 12 µM in assay [6].
In the case of `C[C@@H]1[C@@H]2Cc3ccc(O)cc3[C@]1(C)CCN2CCNc1ccccc1`, the Ki was found to be 0.111 µM in assay [3] and 0.0798 µM in assay [6].
For the compound `C[C@@H]1[C@@H]2Cc3ccc(O)cc3[C@]1(C)CCN2CCN(C)C`, the Ki in assay [1] is 3.38 µM; in assay [2] it was more than 10 µM; in assay [3], 0.347 µM; in assay [4], more than 10 µM; in assay [5], more than 10 µM; in assay [6], 2.888 µM.
Turning to `C=CCN1CC[C@]2(C)c3cc(O)ccc3CC1[C@@H]2C` (single isomer, unassigned; (+)), the Ki in assay [1] was 0.448 µM; in assay [2], more than 10 µM; in assay [4], more than 10 µM; in assay [8] it was 1.9 µM; in assay [5], more than 10 µM.
Regarding `CCN(CCN1CC[C@@]2(C)c3cc(O)ccc3C[C@H]1[C@H]2C)c1ccccc1`, the Ki in assay [3] was 0.151 µM; in assay [6] it was 0.211 µM.
Take `CC(C)=CCN1CC[C@]2(C)c3cc(O)ccc3C[C@H]1[C@H]2C` (single isomer, unassigned) [(+)-PENTAZOCINE]: the Ki in assay [1] was determined as 4.32 µM; in assay [8], 2.37 µM.
For `C[C@@H]1[C@@H]2Cc3ccc(O)cc3[C@]1(C)CCN2CCNCc1ccccc1`, the Ki is 0.187 µM in assay [3] and 0.366 µM in assay [8].
Turning to `C[C@@H]1[C@@H]2Cc3ccc(O)cc3[C@]1(C)CCN2CCN1CCCCCC1`, the Ki in assay [1] was 0.0502 µM; in assay [2], 1.84 µM; in assay [3], 0.151 µM; in assay [4] it was more than 10 µM; in assay [5], more than 10 µM; in assay [6], 9.128 µM.
As to `C[C@@H]1[C@@H]2Cc3ccc(O)cc3[C@]1(C)CCN2CCN(C)c1ccccc1`, the Ki worked out at 0.124 µM in assay [3] and 0.0288 µM in assay [6].
Take `C[C@@H]1[C@@H]2Cc3ccc(O)cc3[C@]1(C)CCN2CCNC1CCCCC1`: the Ki in assay [1] is more than 10 µM; in assay [2], more than 10 µM; in assay [3], 0.328 µM; in assay [4] it was more than 10 µM; in assay [5] it was more than 10 µM; in assay [6] it was 1.466 µM.
With `C[C@@H]1[C@@H]2Cc3ccc(O)cc3[C@]1(C)CCN2CCN1CCOCC1`, the Ki in assay [1] is more than 1 µM; in assay [2] it was 0.419 µM; in assay [3], 0.3 µM; in assay [4] it was more than 10 µM; in assay [5] it was more than 10 µM; in assay [6], 8.168 µM.
On to `CCN(CC)CCN1CC[C@@]2(C)c3cc(O)ccc3C[C@H]1[C@H]2C`, for which the Ki was 7.65 µM in assay [1]; 1.99 µM in assay [2]; 0.378 µM in assay [3]; more than 10 µM in assay [4]; more than 10 µM in assay [5]; 12.29 µM in assay [6].

Usually Ki stands for a measure of affinity in units of concentration, obtained from inhibition or displacement.
